Test systems include SNB-19 CNS; NCI-H226 lung; IGROV1 ovarian; SNB-75 CNS; SF-268 CNS; HOP-62 NSCLC; OVCAR-4 ovarian; HCC-2998 colon; BT-549 breast; SK-OV-3 ovarian.
Common to all, as to assay: NCI tumour cell line growth inhibition, 48 h

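Grown in 96-well plates, cells were treated for 48 hours with each compound at five concentrations. Insufficient inhibition: endpoint recorded as highest concentration tested. Here, GI50 denotes the concentration required for 50% inhibition of growth. The concentration for full growth arrest is given as TGI.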

Turning to `Cc1cn(-c2cc(C(=O)Nc3cccc(-n4ccc5c(NC(=O)c6ccccc6)nccc54)c3)cc(C(F)(F)F)c2)cn1`, the GI50 with SNB-19 CNS is 0.579 µM; in the assay on NCI-H226 lung it was 0.524 µM; in the assay on IGROV1 ovarian it was 0.6 µM; with SNB-75 CNS, 0.252 µM; with SF-268 CNS it was 0.514 µM; in the assay on HOP-62 NSCLC it was 0.628 µM. Further, the GI50 is 1.17 µM in the assay with OVCAR-4 ovarian, 0.862 µM in the assay on HCC-2998 colon, 0.72 µM in the assay with BT-549 breast and 0.325 µM in the assay with SK-OV-3 ovarian. In addition, the TGI turned out to be 25.5 µM in the assay on SNB-19 CNS; 17.1 µM with NCI-H226 lung; 23 µM in the assay with IGROV1 ovarian; 3.27 µM in the assay with SNB-75 CNS; 7.89 µM in the assay with SF-268 CNS; 15.3 µM with HOP-62 NSCLC. The TGI came out at 18 µM in the assay with OVCAR-4 ovarian, 4.79 µM in the assay on HCC-2998 colon, 10 µM in the assay on BT-549 breast and 3.53 µM with SK-OV-3 ovarian.

Turning to `O=C(CNc1c(Cl)cccc1Cl)NC1C=Cc2ccc(S(=O)(=O)Nc3c(Cl)cccc3Cl)cc2C1=O` (stereo unspecified), the TGI with SNB-19 CNS, in the assay with NCI-H226 lung, with IGROV1 ovarian, in the assay with SNB-75 CNS, in the assay with SF-268 CNS and in the assay with HOP-62 NSCLC was greater than 100 µM throughout. The TGI in the assay on OVCAR-4 ovarian, with HCC-2998 colon, with BT-549 breast and in the assay on SK-OV-3 ovarian was greater than 100 µM each time.

As to `C[C@@H]1S[C@H](c2ccccc2F)N2Cc3ccccc3N=C12`, the TGI in the assay with SNB-19 CNS is greater than 100 µM; in the assay on NCI-H226 lung, greater than 100 µM; in the assay on IGROV1 ovarian, greater than 100 µM; in the assay with SNB-75 CNS, 97.4 µM; with SF-268 CNS, greater than 100 µM; in the assay on HOP-62 NSCLC it was greater than 100 µM. The TGI with OVCAR-4 ovarian is 85.4 µM; with HCC-2998 colon it was 40.9 µM; with BT-549 breast, greater than 100 µM; in the assay on SK-OV-3 ovarian it was 85.1 µM.

As for `ClC(Cl)=C1C(=C(Cl)Cl)C(Cl)(Cl)C1(Cl)Cl`, the TGI in the assay with SNB-19 CNS came out at 29 µM; in the assay with NCI-H226 lung, 1.89 µM; in the assay on IGROV1 ovarian it was 18.9 µM; in the assay on SNB-75 CNS, 13.5 µM; in the assay on SF-268 CNS, 9.22 µM; in the assay on HOP-62 NSCLC it was 22.1 µM. In addition, the TGI with OVCAR-4 ovarian came out at 16 µM; in the assay on HCC-2998 colon, 13.7 µM; in the assay with BT-549 breast, 13.4 µM; in the assay with SK-OV-3 ovarian it was 28.8 µM. The GI50 with NCI-H226 lung was 0.422 µM.

Consider `O=C(O)C(SC1=NNC2(C(=O)N1)c1ccccc1-c1ccccc12)SC1=NNC2(C(=O)N1)c1ccccc1-c1ccccc12`, for which the TGI in the assay on SNB-19 CNS, in the assay with NCI-H226 lung, with IGROV1 ovarian, in the assay with SNB-75 CNS, in the assay on SF-268 CNS and with HOP-62 NSCLC was greater than 10 µM throughout. The TGI in the assay on OVCAR-4 ovarian, in the assay with HCC-2998 colon, with BT-549 breast and in the assay on SK-OV-3 ovarian was greater than 10 µM each time.

Consider `COC(=O)c1c2c(cc3c1CCC3)CCC2`, for which the TGI with SNB-19 CNS, with NCI-H226 lung, in the assay with IGROV1 ovarian, with SNB-75 CNS, in the assay with SF-268 CNS and with HOP-62 NSCLC was greater than 100 µM throughout. Besides, the TGI in the assay with OVCAR-4 ovarian, in the assay with HCC-2998 colon, with BT-549 breast and with SK-OV-3 ovarian was greater than 100 µM in each case.

Turning to `COc1cc(-c2cc(=O)c3cc4c(=O)cc(-c5cc(OC)c(OC)c(OC)c5)oc4cc3o2)cc(OC)c1OC`, the TGI in the assay on SNB-19 CNS is 59.6 µM; in the assay on NCI-H226 lung it was 46.2 µM; in the assay with IGROV1 ovarian, greater than 79.1 µM; in the assay on SNB-75 CNS, 32.3 µM; in the assay with SF-268 CNS it was greater than 94.7 µM; with HOP-62 NSCLC, 26.4 µM. Also, the TGI was greater than 100 µM with OVCAR-4 ovarian, greater than 100 µM in the assay on HCC-2998 colon, 86.2 µM with BT-549 breast and 41.4 µM with SK-OV-3 ovarian.

`O=C1NCC(NC(=O)C(F)(F)F)c2c(Br)sc(Br)c21` (stereo unspecified): the TGI in the assay with SNB-19 CNS, in the assay with NCI-H226 lung, in the assay on IGROV1 ovarian, in the assay on SNB-75 CNS, with SF-268 CNS and in the assay on HOP-62 NSCLC was greater than 100 µM each time. Further, the TGI in the assay with OVCAR-4 ovarian, in the assay with HCC-2998 colon, in the assay with BT-549 breast and with SK-OV-3 ovarian was greater than 100 µM throughout.

These data come from PubChem BioAssay (NCI).
